How the values were obtained:
leukotriene D4 = assay: Leukotriene D4-induced bronchoconstriction (modified Konzett-Rossler, transpulmonary pressure) in anesthetized guinea pig, oral administration; assay type: in vivo, male Hartley guinea pig; conditions: p.o., 2 hours before leukotriene D4 (3 μg/kg, i.v.)
Description: A male Hartley guinea pig weighing about 450 g was anesthetized with sodium pentobarbital (30 mg/kg,i.p.). The change in transpulmonary pressure was measured by modifying the method of Konzett-Rossler (J. Harvey, et al., J. Pharmacol. Method. 9, 147-155, 1983) under an artificial ventilation. Animal was treated with indomethacin (10 mg/kg,i.v.) and propranolol (1 mg/kg,i.v.). Bronchoconstrictor response was obtained by bolus injection of leukotriene D4 (3 μg/kg,i.v.). Test compounds were suspended in 5% Gum Arabic solution and orally administered 2 hours before the challenge with leukotriene D4.

leukotriene = conditions: oral; P. Sheard et al, 1977; cited from earlier work

Structure (SMILES)	Inhibition (%) of LTD4-induced bronchoconstrictor response (leukotriene D4; 100 mg/kg) [%]	Inhibition (%) of LTD4-induced bronchoconstrictor response (leukotriene D4; 200 mg/kg) [%]	other results
CCCc1c(OCCCSc2nc3ccc(C(=O)O)cc3[nH]2)ccc(C(C)=O)c1O [Example 1, 2-[3-(4-Acetyl-3-hydroxy-2-propylphenoxy)propyl-thio]benzimidazole-5-carboxylic acid]	47.8	63.3	–
CCCc1c(OCCCCc2nc3ccc(C(=O)O)cc3[nH]2)ccc(C(C)=O)c1O [Example 36, 2-[4-(4-Acetyl-3-hydroxy-2-propylphenoxy)butyl]-benzimidazole-5-carboxylic acid]	44.6	88.6	–
CCCc1c(OCCCCCSc2nc3cc(C(=O)O)ccc3[nH]2)ccc(C(C)=O)c1O [Example 24]	–	57.1	–
CCCc1c(OCCCCSc2nc3cc(C(=O)O)ccc3[nH]2)ccc(C(C)=O)c1O [Example 11]	84.6	–	Inhibition (%) of LTD4-induced bronchoconstrictor response (leukotriene D4; 25 mg/kg): 27.6%; Inhibition (%) of LTD4-induced bronchoconstrictor response (leukotriene D4; 50 mg/kg): 73.1%
CCCc1c(OCCCS(=O)(=O)c2nc3ccccc3[nH]2)ccc(C(C)=O)c1O [Ref. 1, 2-[3-(4-acetyl-3-hydroxy-2-propylphenoxy)propylsulfonyl]-benzimidazole, reference compound]	–	–	Inhibition (%) of LTD4-induced bronchoconstrictor response (leukotriene D4; 400 mg/kg): 19.5%
CCCc1c(OCCCC[S+]([O-])c2nc3cc(C(=O)O)ccc3[nH]2)ccc(C(C)=O)c1O (stereo not drawn) [Example 12]	–	33.3	–
CCCc1c(OCCCS(=O)(=O)c2nc3ccc(C(=O)O)cc3[nH]2)ccc(C(C)=O)c1O [Example 6, 2-[3-(4-Acetyl-3-hydroxy-2-propylphenoxy)propylsulfonyl]benzimidazole-5-carboxylic acid]	–	40.5	–
CCCc1c(OCC(O)COc2ccc3c(=O)cc(C(=O)O)oc3c2CCC)ccc(C(C)=O)c1O (stereo not drawn) [FPL55712]	–	–	effect of leukotriene antagonist when administered orally (leukotriene): no effect

Reference: patent US4942245A, “Benzimidazole Derivatives” (Kyorin Pharmaceutical Co., Ltd., priority 1987, dated 1990)
